Reference: ChEMBL document CHEMBL5576060, “Discovery of acetophenone/piperazin-2-one hybrids as selective anti-TNBC cancer agents by causing DNA damage” (Bioorg Med Chem Lett, 2024)
Activity calls are given as the source filed them. The calls are words filed in the database; no cut-off is given here.

Legend:
[1] = tested on: MDA-MB-468; assay: Antiproliferative activity against human MDA-MB-468 cells assessed as inhibition of cell growth; assay type: functional, cell-based
[2] = tested on: BT-474; assay: Antiproliferative activity against human BT-474 cells assessed as inhibition of cell growth; assay type: functional, cell-based
[3] = Antiproliferative activity against human MCF-10A cells assessed as inhibition of cell growth; assay type: toxicity, cell-based
[4] = tested on: MDA-MB-468; assay: Antiproliferative activity against human MDA-MB-468 cells assessed as inhibition of cell growth at 10 uM incubated for 72 hrs; assay type: functional
[5] = tested on: JIMT-1; assay: Antiproliferative activity against human JIMT-1 cells assessed as inhibition of cell growth; assay type: functional, cell-based
[6] = tested on: MCF7; assay: Antiproliferative activity against human MCF7 cells assessed as inhibition of cell growth; assay type: functional, cell-based
[7] = tested on: SK-BR-3; assay: Antiproliferative activity against human SK-BR-3 cells assessed as inhibition of cell growth; assay type: functional, cell-based
[8] = tested on: JIMT-1; assay: Effect on P53 expression in human JIMT- 1 cells at 20 uM measured for 48 hrs by immunoblot analysis; assay type: functional, cell-based
[9] = Selectivity index, ratio of IC50 for antiproliferative activity against human BT-474 cells assessed as inhibition of cell growth to IC50 for antiproliferative activity against human MDA-MB-468 cells assessed as inhibition of cell growth; assay type: functional
[10] = tested on: MDA-MB-468; assay: Effect on HSP90 level in human MDA-MB-468 cells upto 20 uM; assay type: functional, cell-based
[11] = tested on: MDA-MB-468; assay: Induction of cell cycle arrest in human MDA-MB-468 cells assessed as accumulation of cells at G1 phase at 10 uM measured for 48 hrs by PI staining based flow cytometry analysis (reference value: 80.8%); assay type: functional
[12] = tested on: BT-474; assay: Effect on gammaH2AX expression in human BT-474 cells at 20 uM measured for 48 hrs by immunoblot analysis; assay type: functional, cell-based
[13] = tested on: MCF7; assay: Effect on gammaH2AX expression in human MCF7 cells at 20 uM measured for 48 hrs by immunoblot analysis; assay type: functional, cell-based
[14] = tested on: MDA-MB-468; assay: Effect on HSF-1 level in human MDA-MB-468 cells upto 20 uM; assay type: functional, cell-based
[15] = tested on: MCF7; assay: Effect on P38 expression in human MCF7 cells at 20 uM measured for 48 hrs by immunoblot analysis; assay type: functional, cell-based
[16] = tested on: MDA-MB-468; assay: Induction of DNA damage in human MDA-MB-468 cells assessed as increase in p53 expression; assay type: functional, cell-based; conditions: dose <= 20.0 µM
[17] = tested on: MDA-MB-468; assay: Induction of cell cycle arrest in human MDA-MB-468 cells assessed as accumulation of cells at S phase at 10 uM measured for 48 hrs by PI staining based flow cytometry analysis (reference value: 4.39%); assay type: functional
[18] = tested on: MDA-MB-468; assay: Potency index, ratio of cisplatin IC50 to test compound IC50 for antiproliferative activity against human MDA-MB-468 cells assessed as inhibition of cell growth; assay type: functional
[19] = tested on: MDA-MB-468; assay: Induction of DNA damage in human MDA-MB-468 cells assessed as increase in accumulation of gammaH2AX level; assay type: functional, cell-based; conditions: dose <= 20.0 µM
[20] = tested on: JIMT-1; assay: Effect on HSP70 expression in human JIMT- 1 cells at 20 uM measured for 48 hrs by immunoblot analysis; assay type: functional, cell-based
[21] = tested on: MDA-MB-468; assay: Induction of cell cycle arrest in human MDA-MB-468 cells assessed as accumulation of cells at G1 phase at 5 uM measured for 48 hrs by PI staining based flow cytometry analysis (reference value: 80.8%); assay type: functional
[22] = tested on: MCF7; assay: Effect on P53 expression in human MCF7 cells at 20 uM measured for 48 hrs by immunoblot analysis; assay type: functional, cell-based
[23] = tested on: SK-BR-3; assay: Effect on P38 expression in human SK-BR-3 cells at 20 uM measured for 48 hrs by immunoblot analysis; assay type: functional, cell-based
[24] = tested on: SK-BR-3; assay: Effect on P53 expression in human SK-BR-3 cells at 20 uM measured for 48 hrs by immunoblot analysis; assay type: functional, cell-based
[25] = tested on: BT-474; assay: Effect on HSP70 expression in human BT-474 cells at 20 uM measured for 48 hrs by immunoblot analysis; assay type: functional, cell-based
[26] = tested on: MCF7; assay: Effect on HSP70 expression in human MCF7 cells at 20 uM measured for 48 hrs by immunoblot analysis; assay type: functional, cell-based
[27] = tested on: BT-474; assay: Effect on P53 expression in human BT-474 cells at 20 uM measured for 48 hrs by immunoblot analysis; assay type: functional, cell-based
[28] = tested on: MDA-MB-468; assay: Induction of cell cycle arrest in human MDA-MB-468 cells assessed as accumulation of cells at S phase at 20 uM measured for 48 hrs by PI staining based flow cytometry analysis (reference value: 4.39%); assay type: functional
[29] = tested on: JIMT-1; assay: Effect on P38 expression in human JIMT- 1 cells at 20 uM measured for 48 hrs by immunoblot analysis; assay type: functional, cell-based
[30] = tested on: MDA-MB-468; assay: Induction of cell cycle arrest in human MDA-MB-468 cells assessed as accumulation of cells at S phase at 5 uM measured for 48 hrs by PI staining based flow cytometry analysis (reference value: 4.39%); assay type: functional
[31] = target: MAP kinase p38 (Homo sapiens) (UniProt O15264+Q15759+Q16539+P53778); assay: Inhibition of P38 phosphorylation in human MDA-MB-468 cells upto 20 uM; assay type: cell-based
[32] = tested on: MCF-10A; assay: Effect on HSP70 expression in human MCF-10A cells at 20 uM measured for 48 hrs by immunoblot analysis; assay type: functional, cell-based
[33] = tested on: MCF-10A; assay: Effect on P53 expression in human MCF-10A cells at 20 uM measured for 48 hrs by immunoblot analysis; assay type: functional, cell-based
[34] = tested on: MDA-MB-468; assay: Induction of cell cycle arrest in human MDA-MB-468 cells assessed as accumulation of cells at G2 phase at 10 uM measured for 48 hrs by PI staining based flow cytometry analysis (reference value: 16.4%); assay type: functional
[35] = tested on: BT-474; assay: Effect on P38 expression in human BT-474 cells at 20 uM measured for 48 hrs by immunoblot analysis; assay type: functional, cell-based
[36] = tested on: MDA-MB-468; assay: Induction of cell cycle arrest in human MDA-MB-468 cells assessed as accumulation of cells at G2 phase at 20 uM measured for 48 hrs by PI staining based flow cytometry analysis (reference value: 16.4%); assay type: functional
[37] = tested on: MCF-10A; assay: Effect on gammaH2AX expression in human MCF-10A cells at 20 uM measured for 48 hrs by immunoblot analysis; assay type: functional, cell-based
[38] = tested on: SK-BR-3; assay: Effect on HSP70 expression in human SK-BR-3 cells at 20 uM measured for 48 hrs by immunoblot analysis; assay type: functional, cell-based
[39] = tested on: MDA-MB-468; assay: Induction of cell cycle arrest in human MDA-MB-468 cells assessed as accumulation of cells at G2 phase at 5 uM measured for 48 hrs by PI staining based flow cytometry analysis (reference value: 16.4%); assay type: functional
[40] = tested on: SK-BR-3; assay: Effect on gamma H2AX expression in human SK-BR-3 cells at 20 uM measured for 48 hrs by immunoblot analysis; assay type: functional, cell-based
[41] = tested on: MDA-MB-468; assay: Induction of cell cycle arrest in human MDA-MB-468 cells assessed as accumulation of cells at G1 phase at 20 uM measured for 48 hrs by PI staining based flow cytometry analysis (reference value: 80.8%); assay type: functional
[42] = tested on: JIMT-1; assay: Effect on gammaH2AX expression in human JIMT- 1 cells at 20 uM measured for 48 hrs by immunoblot analysis; assay type: functional, cell-based
[43] = tested on: MCF-10A; assay: Effect on P38 expression in human MCF-10A cells at 20 uM measured for 48 hrs by immunoblot analysis; assay type: functional, cell-based
[44] = tested on: MDA-MB-468; assay: Downregulation of HSP70 expression in human MDA-MB-468 cells upto 20 uM; assay type: functional, cell-based

Question: With `O=C1Nc2ccccc2N/C1=C\C(=O)c1ccccc1` as the molecule, how does the IC50 [1] read?
Answer: 7.73 µM

Question: What about the IC50 [2] of the same molecule?
Answer: > 10 µM

Question: What about the IC50 [3] of the same molecule?
Answer: > 10 µM

Question: What about the inhibition at 10 µM [4] of the same molecule?
Answer: 50%

Question: And the IC50 [5]?
Answer: > 10 µM

Question: And the IC50 [6]?
Answer: > 10 µM

Question: What about the IC50 [7] of the same molecule?
Answer: > 10 µM

Question: With `O=C1Nc2ccccc2N/C1=C\C(=O)c1cccc(OCc2ccccc2)c1` as the molecule, how does the Activity [8] read?
Answer: inactive

Question: And the IC50 [1]?
Answer: 6.5 µM

Question: And the “Ratio IC50” value [9]?
Answer: 4.4

Question: What about the Activity [10] of the same molecule?
Answer: inactive

Question: What about the Activity [11] of the same molecule?
Answer: 69.1%

Question: And the IC50 [2]?
Answer: 28.7 µM

Question: And the Activity [12]?
Answer: inactive

Question: What about the Activity [13] of the same molecule?
Answer: inactive

Question: And the Activity [14]?
Answer: inactive

Question: And the Activity [15]?
Answer: inactive

Question: What about the Activity [16] of the same molecule?
Answer: Dose-Dependent Effect

Question: And the Activity [17]?
Answer: 13.3%

Question: And the IC50 [3]?
Answer: 47.5 µM

Question: And the inhibition at 10 µM [4]?
Answer: 50%

Question: What about the “Ratio IC50” value [18] of the same molecule?
Answer: 2

Question: What about the Activity [19] of the same molecule?
Answer: Dose-Dependent Effect

Question: What about the Activity [20] of the same molecule?
Answer: inactive

Question: And the IC50 [5]?
Answer: 44.9 µM

Question: And the Activity [21]?
Answer: 75%

Question: What about the Activity [22] of the same molecule?
Answer: inactive

Question: And the IC50 [6]?
Answer: 41.6 µM

Question: And the Activity [23]?
Answer: inactive

Question: What about the Activity [24] of the same molecule?
Answer: inactive

Question: What about the Activity [25] of the same molecule?
Answer: inactive

Question: And the Activity [26]?
Answer: inactive

Question: What about the Activity [27] of the same molecule?
Answer: inactive

Question: And the Activity [28]?
Answer: 20%

Question: And the Activity [29]?
Answer: inactive

Question: What about the Activity [30] of the same molecule?
Answer: 9.32%

Question: And the inhibition [31]?
Answer: Active

Question: And the Activity [32]?
Answer: inactive

Question: And the Activity [33]?
Answer: inactive

Question: What about the Activity [34] of the same molecule?
Answer: 19.1%

Question: And the Activity [35]?
Answer: inactive

Question: What about the Activity [36] of the same molecule?
Answer: 22.8%

Question: And the Activity [37]?
Answer: inactive

Question: And the Activity [38]?
Answer: inactive

Question: What about the Activity [39] of the same molecule?
Answer: 17.4%

Question: And the Activity [40]?
Answer: inactive

Question: What about the Activity [41] of the same molecule?
Answer: 58.7%

Question: What about the Activity [42] of the same molecule?
Answer: inactive

Question: And the Activity [43]?
Answer: inactive

Question: What about the Activity [44] of the same molecule?
Answer: Active

Question: What about the IC50 [7] of the same molecule?
Answer: > 60 µM
